Laboratory results published in PubChem BioAssay AID180 (DTP/NCI, 2004).
Several values for one entry are separate records, joined by “and”; a condition that tells them apart may be missing. Equal values may be shown once.

Test system: BDF1 mice, Adenocarcinoma 755 s.c., tumor weight T/C
Test: NCI In Vivo Anticancer Drug Screen. Data for tumor model Adenocarcinoma 755 (subcutaneous) in B6D2F1 (BDF1) mice
Details: endpoint: mean tumor weight, higher = larger tumour
How it was run: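 In vivo antitumor screen on a transplantable tumor line. Result equals the measure in compound-treated animals divided by the same measure in vehicle controls.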

[1] = dose: 25.0 mg/kg/injection, schedule: Q01DX011 (ip), vehicle: carboxymethylcellulose (CMC)
[2] = dose: 75.0 mg/kg/injection, schedule: Q01DX011 (ip), vehicle: carboxymethylcellulose (CMC)
[3] = dose: 225.0 mg/kg/injection, schedule: Q01DX011 (ip), vehicle: carboxymethylcellulose (CMC)

OCC1OC(n2cnc3c(=S)nc[nH]c32)C(O)C1O (stereo unspecified)
T/C (dose: 0.28 mg/kg/injection, schedule: Q01DX011 (ip), vehicle: carboxymethylcellulose (CMC)): 47 % of control | T/C (dose: 0.5 mg/kg/injection, schedule: Q01DX011 (ip), vehicle: saline): 31 % of control | T/C (dose: 0.56 mg/kg/injection, schedule: Q01DX011 (ip), vehicle: carboxymethylcellulose (CMC)): 100 % of control | T/C (dose: 1.0 mg/kg/injection, schedule: Q01DX011 (oral), vehicle: methylcellulose (MC)): 59 % of control | T/C (dose: 1.0 mg/kg/injection, schedule: Q01DX011 (oral), vehicle: saline): 63 % of control | T/C (dose: 1.12 mg/kg/injection, schedule: Q01DX011 (ip), vehicle: carboxymethylcellulose (CMC)): 30 % of control | T/C (dose: 1.25 mg/kg/injection, schedule: Q01DX011 (ip), vehicle: saline): 26 % of control | T/C (dose: 1.5 mg/kg/injection, schedule: Q01DX011 (ip), vehicle: carboxymethylcellulose (CMC)): 65 % of control | T/C (dose: 2.0 mg/kg/injection, schedule: Q01DX011 (oral), vehicle: methylcellulose (MC)): 9 % of control | T/C (dose: 2.0 mg/kg/injection, schedule: Q01DX011 (oral), vehicle: saline): 47 % of control | T/C (dose: 2.23 mg/kg/injection, schedule: Q01DX011 (ip), vehicle: carboxymethylcellulose (CMC)): 4 % of control and 7 % of control | T/C (dose: 2.5 mg/kg/injection, schedule: Q01DX011 (ip), vehicle: carboxymethylcellulose (CMC)): 34 % of control | T/C (dose: 3.0 mg/kg/injection, schedule: Q01DX011 (oral), vehicle: methylcellulose (MC)): 14 % of control | T/C (dose: 3.75 mg/kg/injection, schedule: Q01DX011 (ip), vehicle: carboxymethylcellulose (CMC)): 6 % of control and 12 % of control | T/C (dose: 4.0 mg/kg/injection, schedule: Q01DX011 (oral), vehicle: methylcellulose (MC)): 4 % of control | T/C (dose: 4.0 mg/kg/injection, schedule: Q01DX011 (oral), vehicle: saline): 9 % of control | T/C (dose: 4.47 mg/kg/injection, schedule: Q01DX011 (ip), vehicle: carboxymethylcellulose (CMC)): 10 % of control | T/C (dose: 5.0 mg/kg/injection, schedule: Q01DX011 (oral), vehicle: methylcellulose (MC)): 3 % of control | T/C (dose: 7.5 mg/kg/injection, schedule: Q01DX011 (ip), vehicle: carboxymethylcellulose (CMC)): 5 % of control and 8 % of control | T/C (dose: 8.0 mg/kg/injection, schedule: Q01DX011 (oral), vehicle: saline): 7 % of control | T/C (dose: 8.94 mg/kg/injection, schedule: Q01DX011 (ip), vehicle: carboxymethylcellulose (CMC)): 5 % of control | T/C (dose: 10.0 mg/kg/injection, schedule: Q01DX006 (iv), vehicle: saline): 2 % of control | T/C (dose: 10.0 mg/kg/injection, schedule: Q01DX011 (ip), vehicle: saline): 4 % of control | T/C (dose: 10.0 mg/kg/injection, schedule: Q01DX011 (oral), vehicle: methylcellulose (MC)): 2 % of control | T/C (dose: 10.0 mg/kg/injection, schedule: Q01DX011 (sc), vehicle: saline): 4 % of control | T/C (dose: 10.0 mg/kg/injection, schedule: Q03DX004 (im), vehicle: saline): 3 % of control | T/C (dose: 15.0 mg/kg/injection, schedule: Q01DX011 (ip), vehicle: carboxymethylcellulose (CMC)): 2 % of control and 7 % of control | T/C (dose: 17.87 mg/kg/injection, schedule: Q01DX011 (ip), vehicle: carboxymethylcellulose (CMC)): 6 % of control | T/C (dose: 18.75 mg/kg/injection, schedule: Q01DX011 (ip), vehicle: carboxymethylcellulose (CMC)): 2 % of control | T/C (dose: 20.0 mg/kg/injection, schedule: Q01DX006 (iv), vehicle: saline): 2 % of control | T/C (dose: 20.0 mg/kg/injection, schedule: Q01DX011 (ip), vehicle: saline): 4 % of control | T/C (dose: 20.0 mg/kg/injection, schedule: Q01DX011 (sc), vehicle: saline): 2 % of control | T/C (dose: 20.0 mg/kg/injection, schedule: Q03DX004 (im), vehicle: saline): 2 % of control | T/C [1]: 3 % of control | T/C (dose: 35.75 mg/kg/injection, schedule: Q01DX011 (ip), vehicle: carboxymethylcellulose (CMC)): 5 % of control | T/C (dose: 37.5 mg/kg/injection, schedule: Q01DX011 (ip), vehicle: carboxymethylcellulose (CMC)): 2 % of control and 5 % of control | T/C (dose: 40.0 mg/kg/injection, schedule: Q01DX006 (iv), vehicle: saline): 3 % of control | T/C (dose: 40.0 mg/kg/injection, schedule: Q01DX010 (oral), vehicle: saline): 3 % of control | T/C (dose: 40.0 mg/kg/injection, schedule: Q01DX011 (ip), vehicle: saline): 3 % of control | T/C (dose: 40.0 mg/kg/injection, schedule: Q01DX011 (sc), vehicle: saline): 4 % of control | T/C (dose: 40.0 mg/kg/injection, schedule: Q03DX004 (im), vehicle: saline): 1 % of control | T/C (dose: 57.0 mg/kg/injection, schedule: Q01DX011 (ip), vehicle: carboxymethylcellulose (CMC)): 9 % of control | T/C (dose: 71.5 mg/kg/injection, schedule: Q01DX011 (ip), vehicle: carboxymethylcellulose (CMC)): 5 % of control | T/C (dose: 73.0 mg/kg/injection, schedule: Q01DX011 (ip), vehicle: carboxymethylcellulose (CMC)): 4 % of control | T/C [2]: 4 % of control | T/C (dose: 80.0 mg/kg/injection, schedule: Q01DX006 (iv), vehicle: saline): 3 % of control | T/C (dose: 80.0 mg/kg/injection, schedule: Q01DX011 (ip), vehicle: alkali diluted with saline): 4 % of control | T/C (dose: 80.0 mg/kg/injection, schedule: Q01DX011 (ip), vehicle: saline): 5 % of control | T/C (dose: 80.0 mg/kg/injection, schedule: Q01DX011 (sc), vehicle: saline): 4 % of control | T/C (dose: 80.0 mg/kg/injection, schedule: Q03DX004 (im), vehicle: saline): 2 % of control | T/C (dose: 115.0 mg/kg/injection, schedule: Q01DX011 (ip), vehicle: carboxymethylcellulose (CMC)): 3 % of control | T/C (dose: 120.0 mg/kg/injection, schedule: Q01DX011 (ip), vehicle: alkali diluted with saline): 2 % of control and 3 % of control | T/C (dose: 143.0 mg/kg/injection, schedule: Q01DX011 (ip), vehicle: carboxymethylcellulose (CMC)): 5 % of control | T/C (dose: 146.0 mg/kg/injection, schedule: Q01DX011 (ip), vehicle: carboxymethylcellulose (CMC)): 6 % of control | T/C (dose: 150.0 mg/kg/injection, schedule: Q01DX011 (ip), vehicle: carboxymethylcellulose (CMC)): 4 % of control | T/C (dose: 160.0 mg/kg/injection, schedule: Q01DX011 (ip), vehicle: alkali diluted with saline): 3 % of control | T/C (dose: 200.0 mg/kg/injection, schedule: Q01DX011 (ip), vehicle: carboxymethylcellulose (CMC)): 6 % of control | T/C [3]: 6 % of control | T/C (dose: 231.0 mg/kg/injection, schedule: Q01DX011 (ip), vehicle: carboxymethylcellulose (CMC)): 5 % of control | T/C (dose: 250.0 mg/kg/injection, schedule: Q01DX011 (ip), vehicle: carboxymethylcellulose (CMC)): 3 % of control | T/C (dose: 300.0 mg/kg/injection, schedule: Q01DX011 (ip), vehicle: carboxymethylcellulose (CMC)): 7 % of control | T/C (dose: 320.0 mg/kg/injection, schedule: Q01DX001 (ip), vehicle: alkali diluted with saline): 5 % of control and 7 % of control | T/C (dose: 320.0 mg/kg/injection, schedule: Q01DX001 (oral), vehicle: alkali diluted with saline): 18 % of control | T/C (dose: 320.0 mg/kg/injection, schedule: Q03DX004 (ip), vehicle: alkali diluted with saline): 1 % of control and 5 % of control | T/C (dose: 320.0 mg/kg/injection, schedule: Q03DX004 (oral), vehicle: alkali diluted with saline): 2 % of control | T/C (dose: 320.0 mg/kg/injection, schedule: Q07DX002 (ip), vehicle: alkali diluted with saline): 3 % of control and 7 % of control | T/C (dose: 320.0 mg/kg/injection, schedule: Q07DX002 (oral), vehicle: alkali diluted with saline): 4 % of control | T/C (dose: 480.0 mg/kg/injection, schedule: Q01DX001 (ip), vehicle: alkali diluted with saline): 4 % of control and 9 % of control | T/C (dose: 480.0 mg/kg/injection, schedule: Q01DX001 (oral), vehicle: alkali diluted with saline): 8 % of control | T/C (dose: 480.0 mg/kg/injection, schedule: Q03DX004 (ip), vehicle: alkali diluted with saline): 2 % of control and 3 % of control | T/C (dose: 480.0 mg/kg/injection, schedule: Q07DX002 (ip), vehicle: alkali diluted with saline): 6 % of control | T/C (dose: 480.0 mg/kg/injection, schedule: Q07DX002 (oral), vehicle: alkali diluted with saline): 7 % of control | T/C (dose: 640.0 mg/kg/injection, schedule: Q01DX001 (ip), vehicle: alkali diluted with saline): 5 % of control | T/C (dose: 640.0 mg/kg/injection, schedule: Q01DX001 (oral), vehicle: alkali diluted with saline): 9 % of control | T/C (dose: 640.0 mg/kg/injection, schedule: Q07DX002 (ip), vehicle: alkali diluted with saline): 4 % of control | T/C (dose: 640.0 mg/kg/injection, schedule: Q07DX002 (oral), vehicle: alkali diluted with saline): 3 % of control | T/C (dose: 960.0 mg/kg/injection, schedule: Q01DX001 (oral), vehicle: alkali diluted with saline): 9 % of control | T/C (dose: 960.0 mg/kg/injection, schedule: Q07DX002 (oral), vehicle: alkali diluted with saline): 6 % of control

NS(=O)(=O)c1nc(=S)c2[nH]cnc2[nH]1
T/C [1]: 108 % of control | T/C [2]: 117 % of control | T/C [3]: 79 % of control
